Reference: PubChem BioAssay AID1508604 (National Center for Advancing Translational Sciences (NCATS), 2020)

system: CD-1 mouse liver cytosol, LC/MS substrate depletion half-life; test: NCATS Mouse Liver Cytosol Stability Profiling; settings: at 1 µM; higher = more stable
Description: Assay submitter (PI): Pranav Shah Ph.D. NIH Center for Advancing Translational Sciences 9800 Medical Center Dr, Rockville MD, 20850 Over the last few decades, chemists have become skilled at designing compounds that avoid cytochrome P (CYP) 450 mediated metabolism. Typical screening assays are performed in liver microsomal fractions and it is possible to overlook the contribution of cytosolic enzymes until much later in the drug discovery process. Few data exist on cytosolic enzyme-mediated metabolism and no reliable tools are available to chemists to help design away from such liabilities. In this study, we screened 1450 compounds for liver cytosol-mediated metabolic stability and extracted transformation rules that might help medicinal chemists in optimizing compounds with these liabilities. […] Matched molecular pairs analysis was performed in conjunction with qualitative-structure activity relationship modeling to identify chemical structure transformations affecting cytosolic stability. The transformation rules were prospectively validated on the test set. In addition, selected rules were validated on a diverse chemical library and the resulting pairs were experimentally tested to confirm whether the identified transformations could be generalized. The validation results, comprising nearly 250 library compounds and corresponding half-life data, are made publicly available. The datasets were also used to generate in silico classification models, based on different molecular descriptors and machine learning methods, to predict cytosol-mediated liabilities. To the best of our knowledge, this is the first systematic in silico effort to address cytosolic enzyme-mediated liabilities (Shah 2020). Reference: Shah, P., Siramshetty, V.B., Zakharov, A.V. et al. Predicting liver cytosol stability of small molecules. J Cheminform 12, 21 (2020). https://doi.org/10.1186/s13321-020-00426-7
Compounds are classified as unstable (t 1/2 < 30 min) or stable (t 1/2 > 30 min). […] Reference: 1. Shah, P. et al. An Automated High-Throughput Metabolic Stability Assay Using an Integrated High-Resolution Accurate Mass Method and Automated Data Analysis Software. Drug Metab Dispos 44, 1653-1661 (2016). PMID 27417180

SMILES | half-life [h]
O=C1[C@H]2CN(Cc3ccc(Cl)cc3)C[C@H]2C(=O)N1Cc1ccc2c(c1)OCO2 | 1.11
CCOc1cc(=O)n2c(c1C(=O)Nc1ccc(Cl)cc1)CCCC2 | 1.57
CN(C1CCOCC1)C1CCN(C(=O)c2ccc(Cl)cc2)CC1 | > 2
CN1c2cc(C(=O)Nc3ccc(Cl)cc3)ccc2C(=O)N2CCCCCC21 (centres undefined) | 1.06
Cc1ccc(-c2ccc3nnc(CNC(=O)c4ccc(Cl)cc4)n3n2)cc1 | > 2
Cc1noc(-c2nc(-c3ccc(Cl)cc3)no2)n1 | 0.26
OCC1(CN2CCCC2)CCN(Cc2ccc(Cl)c(F)c2)CC1 | 1.21
CN1c2cc(C(=O)Nc3ccc(Cl)c(F)c3)ccc2C(=O)N2CCCCCC21 (centres undefined) | 0.383
OCC1(CN2CCCC2)CCN(Cc2ccc(Cl)cc2)CC1 | 0.908
COc1cc(=O)n2c(c1C(=O)Nc1ccc(Cl)c(F)c1)CCCC2 | 1.47
O=C1[C@H]2CN(Cc3ccc(Cl)c(F)c3)C[C@H]2C(=O)N1CCc1ccccc1 | 0.621
COCC1CN(Cc2ccc(Cl)c(F)c2)CC12CCNCC2 (centres undefined) | > 2
O=C1[C@H]2CN(Cc3ccc(Cl)cc3)C[C@H]2C(=O)N1CCc1ccccc1 | 0.792
CN(C)c1nc2c(c(=O)[nH]1)CCN(Cc1ccc(Cl)c(F)c1)CC2 | > 2
COCC1CN(Cc2ccc(Cl)cc2)CC12CCNCC2 (centres undefined) | > 2
CCOc1cc(=O)n2c(c1C(=O)Nc1ccc(Cl)c(F)c1)CCCC2 | 1.34
Cc1cccc(-c2noc([C@@H]3C[C@@H](O)CN3Cc3ccc(Cl)cc3)n2)c1 | 0.394
COc1cc(=O)n2c(c1C(=O)Nc1ccc(Cl)cc1)CCCC2 | > 2
CCN1c2cc(C(=O)Nc3ccc(Cl)c(F)c3)ccc2C(=O)N2CCCCC21 (centres undefined) | 0.412
O=C(Nc1cccc(-c2nnc3n2CCCC3)c1)c1ccn[nH]1 | > 2
Cc1ccc2nc(CO[C@H]3CN(Cc4ccc(Cl)cc4)C[C@H]3F)[nH]c2c1 | > 2
CN1C(=O)CO[C@H]2CN(Cc3ccc(Cl)cc3)C[C@H]21 | 1.94
FC(F)(F)c1ccc2nc([C@H]3CCN(Cc4ccc(Cl)cc4)C3)[nH]c2c1 | 0.945
CCN1c2cc(C(=O)Nc3ccc(Cl)cc3)ccc2C(=O)N2CCCCCC21 (centres undefined) | 0.935
O=C1[C@H]2CN(Cc3ccc(Cl)c(F)c3)C[C@H]2C(=O)N1Cc1ccc2c(c1)OCO2 | 0.921
O=C(Nc1ccc(-c2nnc3n2CCCC3)cc1)c1ccn[nH]1 | > 2
O=C1OCC2(CCN(Cc3ccn[nH]3)C2)N1CCN1CCOCC1 (centres undefined) | > 2

The remaining lines, values ahead:

half-life [h] | SMILES
> 2 | O=c1[nH]c(N2CCOCC2)nc2c1CCN(Cc1ccc(Cl)cc1)CC2
> 2 | O=C1NC2(CCN(C(=O)c3ccc(Cl)cc3)CC2)CC1c1ccccc1 (centres undefined)
> 2 | Cn1c([C@H]2CCN(Cc3ccc(Cl)cc3)C2)nc2ccccc21
0.904 | CCN1c2cc(C(=O)Nc3ccc(Cl)c(F)c3)ccc2C(=O)N2CCCCCC21 (centres undefined)
0.941 | O=C(Nc1cccc(-c2nnc3n2CCCC3)c1)c1ccc(Cl)cc1
> 2 | CN1CCN(c2nc3c(c(=O)[nH]2)CCN(Cc2ccc(Cl)cc2)CC3)CC1
1.91 | CN(C)c1nc2c(c(=O)[nH]1)CCN(Cc1ccc(Cl)cc1)CC2
> 2 | COCC1CN(C(C)=O)CC12CCN(Cc1ccc(Cl)cc1)CC2 (centres undefined)
1.36 | COCC1CN(C(C)=O)CC12CCN(Cc1ccc(Cl)c(F)c1)CC2 (centres undefined)
> 2 | CN(C1CCOCC1)C1CCN(C(=O)c2ccn[nH]2)CC1
0.524 | CN1c2cc(C(=O)Nc3ccc(Cl)c(F)c3)ccc2C(=O)N2CCCCC21 (centres undefined)
> 2 | O=C1OCC2(CCN(Cc3ccc(Cl)cc3)C2)N1CCN1CCOCC1 (centres undefined)
1.39 | CN1c2cc(C(=O)Nc3ccc(Cl)cc3)ccc2C(=O)N2CCCCC21 (centres undefined)
1.37 | COc1ccc(CN2C[C@H]3CN(Cc4ccc(Cl)cc4)CCN3C2=O)cc1
0.429 | CCN1c2cc(C(=O)Nc3ccc(Cl)cc3)ccc2C(=O)N2CCCCC21 (centres undefined)
> 2 | CN1CCN(c2nc3c(c(=O)[nH]2)CCN(Cc2ccc(Cl)c(F)c2)CC3)CC1
> 2 | COc1cccc(C(=O)NCC2CCCN(Cc3ccn[nH]3)C2)c1OC (centres undefined)
1.43 | O=C1NC2(CCN(C(=O)c3ccc(Cl)c(F)c3)CC2)CC1c1ccccc1 (centres undefined)
1.54 | O=c1[nH]c(N2CCOCC2)nc2c1CCN(Cc1ccc(Cl)c(F)c1)CC2
1.95 | O=C(Nc1ccc(-c2nnc3n2CCCC3)cc1)c1ccc(Cl)cc1
> 2 | COc1cccc(C(=O)NCC2CCCN(Cc3ccc(Cl)cc3)C2)c1OC (centres undefined)
1.24 | CN(Cc1cccnc1)c1nc2c(c(=O)[nH]1)CCN(Cc1ccc(Cl)cc1)CC2
